Data: patent US9815831B2, “3,5-disubstituted-3H-imidazo[4,5-B]pyridine and 3,5-disubstituted-3H-[1,2,3]triazolo[4,5-B] pyridine compounds as modulators of c-Met protein kinases” (Rhizen Pharmaceuticals SA, priority 2012, dated 2017)
Where two headings read alike, the source gives them in different places.

How the values were obtained:
[1] = biological target: T1, human recombinant Met kinase (Homo sapiens, UniProt P08581); assay: Colorimetric determination of c-Met kinase activity (HTScan Met Kinase Assay Kit); format: biochemical; conditions: 100 nM (cells without *), read-out: c-Met Enzyme % inhibition @ 100 nM
T1 construct: purchased Cell Signalling Technology, Beverly, Mass
How it was run: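 Human recombinant Met kinase was preincubated with compound for 5 min at room temperature, then reacted with ATP and biotinylated peptide for 30 min; EDTA stop. Phosphopeptide captured on streptavidin and detected with phospho-tyrosine mAb and europium anti-mouse IgG by time-resolved fluorescence (340/615 nm). Reported as % inhibition or IC50.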

MKN-45 = assay: Inhibition of MKN-45 proliferation (MTT); format: cell-based, human; conditions: Homo sapiens, MKN-45 proliferation; for inhibition at 0.1 µM: 100 nM, read-out: MKN45 % inhibition @ 100 nM; for GI50: read-out: MKN45 GI50
How it was run: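 High-Met human gastric adenocarcinoma MKN-45 cells plated on day 1 and exposed to compound from day 2. Viability measured by MTT dye reduction on day 5; output given as % inhibition at 100 nM and GI50.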

[2] = biological target: T1, human recombinant Met kinase; assay: Colorimetric determination of c-Met kinase activity (HTScan Met Kinase Assay Kit); format: biochemical; conditions: read-out: c-Met Enzyme IC50
c-Met kinase [3] = biological target: T2, c-Met kinase (Homo sapiens, UniProt P08581); assay: Inhibition of c-Met kinase phosphorylation in MKN-45 cells (cell based ELISA); set-up: endogenous in cells; host or cells: MKN-45; conditions: Table 4D, 1 h incubation
Experimental: MKN45 cells are a prototype of “c-Met addicted” cells having constitutively activated c-Met kinase similar to that observed in sub-sects of gastric or hepatocellular cancer patients with dysregulated c-Met kinase activity. Inhibition of Met phosphorylation was determined using a cell based ELISA assay according to the following schedule: • Day 1: MKN-45 cells were plated in 96-well plates in complete growth medium. • Day 2: Inhibitors at the desired concentration were added to the plates and incubated for 1 h and lysed subsequently. Lysates were transferred to NUNC Maxisorp plates coated with anti-cMet receptor antibody. Phopho-tyrosine mAb and HRP-lined anti-mouse IgG were used as primary and secondary antibodies respectively. Optical density was measured on a microplate reader (BMG Labtech., Germany) at […]. Inhibition of c-Met phosphorylation in this cell line indicates a therapeutic potential for test compounds in patients diagnosed with cancers caused by aberrant c-Met kinase signalling. Results: The results are provided above in Table 4D as IC50 values.

c-Met kinase [4] = biological target: T2, c-Met kinase; assay: Inhibition of c-Met kinase phosphorylation in NCI-H441 cells (cell based ELISA); conditions: Table 5, 1 h incubation
Experimental: 5. Inhibition of c-Met Kinase Phosphorylation in NCI-H441 Cells:
Inhibition of Met phosphorylation was determined using a cell based ELISA assay according to the following schedule: • Day 1: NCI-H441 cells were plated in 96-well plates in complete growth medium. • Day 2: Inhibitors at the desired concentration were added to the plates, incubated for 1 h and lysed subsequently. Lysates were transferred to NUNC Maxisorp plates coated with anti-cMet receptor antibody. Phopho-tyrosine mAb and HRP-lined anti-mouse IgG were used as primary and secondary antibodies respectively. Optical density was measured on a microplate reader (BMG Labtech., Germany) at […]. […] Results: The results are given below in Table 5 as IC50 values.

Akt [5] = assay: Inhibition of Akt phosphorylation in MKN-45 cells (Western blot); format: cell-based; conditions: Homo sapiens, Table 6, 0-1000 nM
Experimental: (§1) 6. Inhibition of Akt Phosphorylation in MKN-45 or NCI-H441 Cells:
(§2) Akt is a serine-threonine kinase and a downstream marker regulated by c-Met kinase via the PI3K pathway. Once phosphorylated, Akt regulates several end processes including cell survival and growth. Cells were treated with 0-1000 nM of test compounds, lysed, and the proteins separated on a 10% SDS-PAGE. Following separation, proteins were transferred onto a nitrocellulose membrane and detected by chemiluminescence after incubation with […] (primary) and rabbit anti-mouse Ab (secondary). Intensity of the bands was determined using ImageJ 1.42q (NIH, USA) and normalized to Actin (loading control).
(§3) Results: The results are provided below as IC50 values in Table 6.

Akt [6] = assay: Inhibition of Akt phosphorylation in NCI-H441 cells (Western blot); format: cell-based; conditions: Homo sapiens, Table 6, 0-1000 nM
Experimental: as §1, §2, §3

MKN-45 cells = assay: Induction of apoptosis in MKN-45 cells (caspase-3 activity); format: cell-based, human; conditions: percentage induction @ 3 μM; caspase-3, MKN-45 cells, 24 h; percent of maximum response
Experimental: 7. Induction of Apoptosis in MKN-45 Cells: I
Induction of Caspase 3 was measured fluorimetrically. Cells were incubated with desired concentrations of the compound for 24 h. After incubation, cells were harvested and counted. An equal number of viable cells per well (0.3×10^6 cells) were used for determination of caspase-3 activity. Increase in apoptosis manifested by an elevation in caspase-3 levels was determined using a Caspase-3 kit from Millipore. Data are expressed as a percent of the maximum response (100%).
Results: The results are provided below as percentage induction @ 3 μM in Table 7.

MDA-MB-231 cells = assay: Inhibition of HGF-induced cell proliferation in MDA-MB-231 cells (MTT); format: cell-based; conditions: Homo sapiens, Table 8, HGF (50 ng/ml)
Experimental: 8. Inhibition of HGF-Induced Met Phosphorylation in MDA-MB-231 Cells:
MDA-MB-231 is a breast cancer cell line having a high level of c-Met expression. Activation of Met kinase in these cells occurs only after the addition of its natural ligand, Hepatocyte Growth Factor (HGF). Upon binding to the extracellular domain of the enzyme, it triggers phosphorylation of tyrosine residues and regulates several downstream events such as cell proliferation. Cell proliferation assays were carried out using the high Met expressing cell line (MDA-MB-231) according to the following schedule: • Day 1: Cells were plated in 96-well plates in complete growth medium. • Day 2: Media was replaced with starvation medium containing 0.04% BSA. • Day 3: Inhibitors at the desired concentrations and HGF (50 ng/ml) were added. • Day 5: Cell viability was determined using the 3-[4,5-dimethylthiazol-2-yl]-2,5-diphenyltetrazolium bromide (MTT) dye reduction test. […] Results: The results are provided below in Table 8 as IC50 values.

T1 sequence (P08581 25-1390): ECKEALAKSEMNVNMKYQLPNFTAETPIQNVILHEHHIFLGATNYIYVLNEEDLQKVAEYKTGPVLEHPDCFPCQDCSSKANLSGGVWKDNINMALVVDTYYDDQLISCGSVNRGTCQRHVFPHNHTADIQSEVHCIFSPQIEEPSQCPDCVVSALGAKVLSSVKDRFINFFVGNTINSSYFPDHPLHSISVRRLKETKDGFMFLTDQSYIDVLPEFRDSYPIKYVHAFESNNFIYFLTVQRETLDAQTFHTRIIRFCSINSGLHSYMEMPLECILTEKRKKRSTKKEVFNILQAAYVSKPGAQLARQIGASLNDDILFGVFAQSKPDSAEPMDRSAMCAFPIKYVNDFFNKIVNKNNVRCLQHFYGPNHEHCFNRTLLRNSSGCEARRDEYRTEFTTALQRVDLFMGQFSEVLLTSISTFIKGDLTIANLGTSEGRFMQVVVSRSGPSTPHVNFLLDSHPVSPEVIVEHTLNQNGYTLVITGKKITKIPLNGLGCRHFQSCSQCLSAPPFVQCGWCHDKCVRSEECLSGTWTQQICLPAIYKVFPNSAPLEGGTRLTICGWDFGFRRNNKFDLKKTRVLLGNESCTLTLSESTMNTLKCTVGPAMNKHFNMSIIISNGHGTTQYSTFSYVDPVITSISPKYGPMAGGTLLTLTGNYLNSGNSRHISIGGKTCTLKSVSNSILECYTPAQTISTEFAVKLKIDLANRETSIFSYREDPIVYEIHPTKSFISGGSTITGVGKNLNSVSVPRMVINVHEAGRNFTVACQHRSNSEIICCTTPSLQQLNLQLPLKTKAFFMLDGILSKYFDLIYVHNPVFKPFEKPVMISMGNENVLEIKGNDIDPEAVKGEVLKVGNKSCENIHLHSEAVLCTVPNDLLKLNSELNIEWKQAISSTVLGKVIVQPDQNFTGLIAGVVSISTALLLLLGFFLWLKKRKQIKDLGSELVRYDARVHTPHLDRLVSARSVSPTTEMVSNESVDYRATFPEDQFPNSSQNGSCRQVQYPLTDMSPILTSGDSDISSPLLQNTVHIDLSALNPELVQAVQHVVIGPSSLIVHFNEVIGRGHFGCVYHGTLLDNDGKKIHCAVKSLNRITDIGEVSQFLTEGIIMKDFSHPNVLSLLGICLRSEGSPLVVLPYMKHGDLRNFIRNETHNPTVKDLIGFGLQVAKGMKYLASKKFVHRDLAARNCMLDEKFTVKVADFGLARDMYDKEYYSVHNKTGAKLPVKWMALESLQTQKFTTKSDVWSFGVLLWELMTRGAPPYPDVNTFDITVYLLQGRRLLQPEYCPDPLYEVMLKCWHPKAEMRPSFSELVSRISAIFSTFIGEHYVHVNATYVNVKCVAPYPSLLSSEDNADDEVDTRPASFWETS
T2 sequence (P08581 25-1390): as above

Row | SMILES | inhibition at 0.1 µM ([1]; Table 4A) [%] | inhibition at 0.1 µM (MKN-45; MKN-45, Table 4A) [%] | melting point [°C] | IC50 ([2]; Table 4A) [nM] | GI50 (MKN-45; MKN-45, Table 4A) [nM] | inhibition at 0.1 µM ([1]; Table 4C) [%] | GI50 (MKN-45; MKN-45, Table 4C) [nM] | IC50 ([2]; Table 4C) [nM] | IC50 (c-Met kinase [3]) [nM] | IC50 (c-Met kinase [4]) [nM] | IC50 (Akt [5]) [nM] | IC50 (Akt [6]) [nM] | % induction of caspase-3 activity (MKN-45 cells) | IC50 (MDA-MB-231 cells) [nM]
1 | Cc1ccc2cc(Cn3nnc4ccc(-c5cc(F)c(C(=O)NOCCO)c(F)c5)nc43)ccc2n1 [Example 21, 2,6-difluoro-N-(2-hydroxyethoxy)-4-(3-((2-methylquinolin-6-yl)methyl)-3H-[1,2,3]triazolo[4,5-b]pyridin-5-yl) benzamide] | 75 to 100 | < 25 | 208 to 210 | 25 to 50 |  |  |  |  |  |  |  |  |  | 
2 | O=C(NOCCO)c1ccc(-c2ccc3nnn(Cc4ccc5ncccc5c4)c3n2)cc1F [Example 10, 2-fluoro-N-(2-hydroxyethoxy)-4-(3-(quinolin-6-ylmethyl)-3H-[1,2,3]triazolo[4,5-b]pyridin-5-yl)benzamide] | 75 to 100 | 75 to 100 | 200 to 203 | 25 to 50 | 25 to 50 |  |  |  |  |  |  |  |  | 
3 | NC(=O)c1ccc(-c2ccc3ncn(Cc4ccc5ncccc5c4)c3n2)cc1C(F)(F)F [Example 1024, 4-(3-Quinolin-6-ylmethyl-3H-imidazo[4,5-b]pyridin-5-yl)-2-trifluoromethyl-benzamide] |  |  | 243 to 245 |  |  | 75 to 100 | 100 to 250 | < 25 |  |  |  |  |  | 
4 | C[C@H](O)CONC(=O)c1ccc(-c2ccc3nnn(Cc4ccc5ncccc5c4)c3n2)cc1Cl [Example 31, (S)-2-chloro-N-(2-hydroxypropoxy)-4-(3-(quinolin-6-ylmethyl)-3H-[1,2,3]triazolo[4,5-b]pyridin-5-yl) benzamide] | 50 to 75 | 50 to 75 |  |  | 25 to 50 |  |  |  | ≤ 10 |  |  |  |  | 
5 | O=C(NOCCO)c1c(F)cc(-c2ccc3nnn(Cc4ccc5ncsc5c4)c3n2)cc1F [Example 19, 4-(3-(benzo[d]thiazol-6-ylmethyl)-3H-[1,2,3]triazolo[4,5-b]pyridin-5-yl)-2,6-difluoro-N-(2-hydroxyethoxy)benzamide] | 75 to 100 | 25 to 50 | 202 to 205 | 25 to 50 | 50 to 100 |  |  |  |  |  |  |  |  | 
6 | O=C(NOCCO)c1ccc(-c2ccc3nnn(Cc4cc5cccnc5cc4F)c3n2)cc1Cl [Example 7, 2-chloro-4-(3-((7-fluoroquinolin-6-yl)methyl)-3H-[1,2,3]triazolo[4,5-b]pyridin-5-yl)-N-(2-hydroxyethoxy)benzamide] | 75 to 100 | 75 to 100 |  | 25 to 50 | 25 to 50 |  |  |  | ≤ 10 | ≤ 10 | ≤ 10 | ≤ 10 | A (A is ≧75) | 
7 | O=C(NOCCO)c1c(F)cc(-c2ccc3nnn(Cc4ccc5ncccc5c4)c3n2)cc1F [Example 8, 2,6-difluoro-N-(2-hydroxyethoxy)-4-(3-(quinolin-6-ylmethyl)-3H-[1,2,3]triazolo[4,5-b]pyridin-5-yl)benzamide] | 75 to 100 | 25 to 50 |  | 25 to 50 | 50 to 100 |  |  |  | 50 to 500 | 25 to 50 | 50 to 250 | ≤ 10 | C (C is <50 and ≧25) | 
8 | O=C(NOCCO)c1ccc(-c2ccc3nnn(Cc4ccc5ncsc5c4)c3n2)cc1F [Example 20, 4-(3-(benzo[d]thiazol-6-ylmethyl)-3H-[1,2,3]triazolo[4,5-b]pyridin-5-yl)-2-fluoro-N-(2-hydroxyethoxy)benzamide] | 75 to 100 | 75 to 100 | 164 to 166 | 25 to 50 | 50 to 100 |  |  |  |  |  |  |  |  | 
9 | O=C(NOCCO)c1c(F)cc(-c2ccc3nnn(Cc4cc5cccnc5cc4F)c3n2)cc1F [Example 9, 2,6-difluoro-4-(3-((7-fluoroquinolin-6-yl)methyl)-3H-[1,2,3]triazolo[4,5-b]pyridin-5-yl)-N-(2-hydroxyethoxy)benzamide] | 75 to 100 | 75 to 100 |  | 25 to 50 | 50 to 100 |  |  |  | 25 to 50 | 10 to 25 | 50 to 250 | 10 to 25 | A (A is ≧75) | 
10 | O=C(NOCCO)c1ccc(-c2ccc3nnn(Cc4ccc5ncsc5c4)c3n2)cc1Cl [Example 18, 4-(3-(benzo[d]thiazol-6-ylmethyl)-3H-[1,2,3]triazolo[4,5-b]pyridin-5-yl)-2-chloro-N-(2-hydroxyethoxy)benzamide] | 50 to 75 | 25 to 50 | 194 to 196 | 25 to 50 | 50 to 100 |  |  |  |  |  |  |  |  | 
11 | O=C(NOCCO)c1ccc(-c2ccc3nnn(Cc4ccc5ncccc5c4)c3n2)cc1Cl [Example 6, 2-chloro-N-(2-hydroxyethoxy)-4-(3-(quinolin-6-ylmethyl)-3H-[1,2,3]triazolo[4,5-b]pyridin-5-yl)benzamide] |  | 75 to 100 |  | 25 to 50 | 25 to 50 |  |  |  | 25 to 50 | ≤ 10 | 10 to 25 | ≤ 10 | B (B is <75 and ≧50) | < 10
12 | Cc1cc(-c2ccc3nnn(Cc4ccc5ncccc5c4)c3n2)ccc1C(=O)NOCC(C)(C)O [Example 33, N-(2-hydroxy-2-methylpropoxy)-2-methyl-4-(3-(quinolin-6-ylmethyl)-3H-[1,2,3]triazolo[4,5-b]pyridin-5-yl)benzamide] | 75 to 100 |  |  |  |  |  |  |  | 10 to 25 | ≤ 10 | 25 to 50 | ≤ 10 | A (A is ≧75) | 10 to 50
13 | C[C@@H](O)CONC(=O)c1ccc(-c2ccc3nnn(Cc4ccc5ncccc5c4)c3n2)cc1Cl [Example 32, (R)-2-chloro-N-(2-hydroxypropoxy)-4-(3-(quinolin-6-ylmethyl)-3H-[1,2,3]triazolo[4,5-b]pyridin-5-yl) benzamide] | 75 to 100 | 75 to 100 |  | 25 to 50 | 25 to 50 |  |  |  | ≤ 10 |  |  |  |  | 
